In PMC10530652 (BME Frontiers, 2021):

Assays:
Crl:WI(Han) rats = test: Single intratracheal administration toxicity study of AZD1236; type: in vivo, rat; settings: 35 µg/animal (70 µg/mL)
Experimental: Assessment of toxicity of AZD1236 was based on clinical signs, body weight, food consumption, clinical and anatomic pathology evaluations. Complete necropsies were performed on all animals with a recording of macroscopic abnormalities for all tissues. Organ weights and microscopic examinations were conducted as indicated.

[1] = test system: MMP activity in the alveolar space; test: In vivo assessment of FIB One and AZD1236 with TLBC in patients; set-up: species or system human; settings: 500 μL AZD1236 14 μg/mL predelivered, then 500 μL FIB One 20 μg/mL, nine patients
Experimental: In subsequent testing the Miniaturized Alveoflex™-TLBC combination replaced the Alveoflex™ fibre. The entire apparatus was passed transbronchially to allow direct alveolar imaging before localised delivery of agents. Once transbronchial pass was accomplished, baseline lung imaging was recorded for at least 30 sec. A 500 μL microdose of either AZD1236 (14 μg/mL) or sterile PBS (control) was administered under direct observation, and further imaging was obtained for >60 sec. 500 μL of FIB One (20 μg/mL) (delivered only after at least 60s to allow MMP inhibition) was then dosed to the same area with a further 90-120 sec of imaging captured. If considerable movement due to breathing or coughing was encountered, imaging was halted and a new segment identified. Up to 6 segments of interest were investigated per patient determined by patient tolerance.
All video sequences were assessed by two clinicians with clinical experience of pulmonary endomicroscopy. Frames with excessive movement or lack of recognizable alveolar structure were removed from analysis. Videos were assessed to ensure stability throughout the imaging procedure. […] All video files were analysed using the Cellvizio® Viewer image processing software from Mauna Kea Technologies, Paris. […] The median RFU was calculated for each category and used as a comparative value between groups.

**Q.** With AZD1236 as the substance, how does the “deaths, clinical signs, body weight, food consumption, clinical or anatomic pathology” value (Crl:WI(Han) rats) read?
**A.** Its value is “no deaths, no adverse clinical signs and no effects of treatment”.

**Q.** What about the “tolerability, acute or delayed toxicity” value (Crl:WI(Han) rats) of the same substance?
**A.** The value was “well tolerated with no evidence of acute or delayed toxicity”.

**Q.** What about the “drug-target engagement within the alveolar space” value [1] of the same substance?
**A.** The value was “in situ in vivo drug-target engagement”.
